Assay results taken from patent publication US5236936A, “Pyridine compounds which are useful as angiotensin II receptor antagonists” (Imperial Chemical Industries PLC, priority 1991, dated 1993).

Tests used:
[1] = test system: angiotensin II-induced pressor responses; experiment: Test C: antagonism of angiotensin II-induced pressor responses in terminally-anaesthetised or conscious rats; assay type: in vivo; conditions: iv, rat, i.v. administration
Procedure: Test C: This in vivo test involves using terminally-anaesthetised or conscious rats in which an arterial catheter has been implanted under anaesthesia for the measurement of changes in blood pressure. The AII antagonistic effects of the test compound following oral or parenteral administration, are assessed against angiotensin II-induced pressor responses. To ensure that the effect is specific, the effect of the test compound on vasopressin-induced pressor responses may also be determined in the same preparation.

[2] = biological target: T1, AII receptors (guinea pig adrenal gland cell surface membrane fraction) (Cavia porcellus, UniProt Q9WV26); experiment: Test A: displacement of radiolabelled AII binding to guinea pig adrenal gland cell surface membranes; conditions: read-out: IC50 (concentration for 50% displacement of radiolabelled AII binding)
T1 construct: from tissue; host or cells: guinea pig adrenal gland, cell surface membrane fraction
T1 sequence (Q9WV26 1-359): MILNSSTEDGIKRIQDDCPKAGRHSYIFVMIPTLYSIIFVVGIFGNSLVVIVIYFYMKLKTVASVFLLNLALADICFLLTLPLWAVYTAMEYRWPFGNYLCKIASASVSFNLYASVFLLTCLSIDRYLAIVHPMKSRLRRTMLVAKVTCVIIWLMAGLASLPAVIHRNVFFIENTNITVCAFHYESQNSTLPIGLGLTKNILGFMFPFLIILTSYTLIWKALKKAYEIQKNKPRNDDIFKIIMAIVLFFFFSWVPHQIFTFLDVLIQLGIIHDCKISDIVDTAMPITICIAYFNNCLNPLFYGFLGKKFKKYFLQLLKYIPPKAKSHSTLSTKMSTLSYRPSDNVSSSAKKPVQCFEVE
Procedure: Test A: This in vitro procedure involves the incubation of the test compound initially at a concentration of 100 micromolar (or less) in a buffered mixture containing fixed concentrations of radiolabelled AII and a cell surface membrane fraction prepared from a suitable angiotensin target tissue. In this test, the source of cell surface membranes is the guinea pig adrenal gland which is well known to respond to AII. Interaction of the radiolabelled AII with its receptors (assessed as radiolabel bound to the particulate membrane fraction following removal of unbound radiolabel by a rapid filtration procedure such as is standard in such studies) is antagonized by compounds which also bind to the membrane receptor sites and the degree of antagonism (observed in the test as displacement of membrane-bound radioactivity) is determined readily by comparing the receptor-bound radioactivity in the presence of the test compound at the specified test concentration with a control value determined in the absence of the test compound. Using this procedure compounds showing at least 50% displacement of radiolabelled AII binding at a concentration of 10^-4 M are retested at lower concentrations to determine their potency. […]

IC50 [2]: 5.5 nM
Structure (SMILES): CCc1cc(OCc2ccc(-c3ccccc3-c3nnn[nH]3)cc2)c(-c2ccncc2)c(C)n1.Cl.Cl [Example 3, 6-ethyl-2-methyl-3-(4-pyridyl)-4-[(2'-(1H-tetrazol-5-yl)biphenyl-4-yl)methoxy]pyridine dihydrochloride]
ED50 [1]: 0.18 mg/kg
